Results: ChEMBL document CHEMBL3769327, “Emerging targets and new small molecule therapies in Parkinson's disease treatment” (Bioorg Med Chem, 2016)

Experiments:
[1] = Inhibition of human sPLA2 expressed in Escherichia coli assessed as release of [14C]oleate
UT7 = experiment: Induction of cell proliferation in human UT7 cells at 10 uM after 42 hrs by thymidine incorporation assay; type: functional
[2] = molecular target: Sodium-dependent serotonin transporter (Homo sapiens, UniProt P31645); experiment: Inhibition of recombinant human 5-HT transporter expressed in HEK293 cells assessed as reduction in [3H]-5-HT reuptake; type: cell-based
Chain of Sodium-dependent serotonin transporter (Homo sapiens, UniProt P31645) (P31645 whole entry): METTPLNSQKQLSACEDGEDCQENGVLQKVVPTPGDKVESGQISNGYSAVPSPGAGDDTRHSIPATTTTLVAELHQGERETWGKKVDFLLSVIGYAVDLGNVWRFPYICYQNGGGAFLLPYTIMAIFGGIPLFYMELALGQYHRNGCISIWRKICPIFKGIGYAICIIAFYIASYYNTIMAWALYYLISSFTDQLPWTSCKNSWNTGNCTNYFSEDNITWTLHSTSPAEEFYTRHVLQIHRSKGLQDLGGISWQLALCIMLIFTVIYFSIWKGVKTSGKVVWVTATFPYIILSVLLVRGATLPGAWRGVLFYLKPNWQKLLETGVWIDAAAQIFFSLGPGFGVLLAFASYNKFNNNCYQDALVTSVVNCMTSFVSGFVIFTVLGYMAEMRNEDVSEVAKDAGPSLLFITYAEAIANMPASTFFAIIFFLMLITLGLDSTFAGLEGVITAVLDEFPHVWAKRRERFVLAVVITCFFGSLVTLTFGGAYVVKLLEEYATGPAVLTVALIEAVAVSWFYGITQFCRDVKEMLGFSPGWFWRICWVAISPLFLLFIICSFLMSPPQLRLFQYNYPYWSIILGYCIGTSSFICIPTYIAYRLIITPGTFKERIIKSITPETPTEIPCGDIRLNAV

[3] = molecular target: Sodium-dependent dopamine transporter (Homo sapiens, UniProt Q01959); experiment: Inhibition of recombinant human DA transporter assessed as reduction in [3H]-DA reuptake
Chain of Sodium-dependent dopamine transporter (Homo sapiens, UniProt Q01959) (Q01959 whole entry): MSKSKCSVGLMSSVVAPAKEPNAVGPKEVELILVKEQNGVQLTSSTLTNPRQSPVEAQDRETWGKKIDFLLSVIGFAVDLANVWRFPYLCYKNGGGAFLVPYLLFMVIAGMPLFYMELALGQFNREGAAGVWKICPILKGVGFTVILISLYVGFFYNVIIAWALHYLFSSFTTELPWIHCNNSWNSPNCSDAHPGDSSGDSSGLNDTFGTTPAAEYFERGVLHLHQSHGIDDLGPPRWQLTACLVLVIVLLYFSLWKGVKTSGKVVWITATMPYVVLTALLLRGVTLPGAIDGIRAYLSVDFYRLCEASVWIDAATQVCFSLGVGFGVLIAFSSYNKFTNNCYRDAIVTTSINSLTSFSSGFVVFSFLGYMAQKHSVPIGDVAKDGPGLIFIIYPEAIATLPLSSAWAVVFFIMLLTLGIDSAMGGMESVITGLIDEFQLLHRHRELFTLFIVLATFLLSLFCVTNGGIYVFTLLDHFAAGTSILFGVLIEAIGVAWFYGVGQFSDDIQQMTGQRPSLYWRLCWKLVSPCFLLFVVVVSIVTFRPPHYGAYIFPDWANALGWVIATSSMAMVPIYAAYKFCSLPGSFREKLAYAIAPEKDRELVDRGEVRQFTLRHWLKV

[4] = molecular target: Sodium-dependent noradrenaline transporter (Homo sapiens, UniProt P23975); experiment: Inhibition of recombinant human norepinephrine transporter assessed as reduction in [3H]-NA reuptake
Chain of Sodium-dependent noradrenaline transporter (P23975 whole entry): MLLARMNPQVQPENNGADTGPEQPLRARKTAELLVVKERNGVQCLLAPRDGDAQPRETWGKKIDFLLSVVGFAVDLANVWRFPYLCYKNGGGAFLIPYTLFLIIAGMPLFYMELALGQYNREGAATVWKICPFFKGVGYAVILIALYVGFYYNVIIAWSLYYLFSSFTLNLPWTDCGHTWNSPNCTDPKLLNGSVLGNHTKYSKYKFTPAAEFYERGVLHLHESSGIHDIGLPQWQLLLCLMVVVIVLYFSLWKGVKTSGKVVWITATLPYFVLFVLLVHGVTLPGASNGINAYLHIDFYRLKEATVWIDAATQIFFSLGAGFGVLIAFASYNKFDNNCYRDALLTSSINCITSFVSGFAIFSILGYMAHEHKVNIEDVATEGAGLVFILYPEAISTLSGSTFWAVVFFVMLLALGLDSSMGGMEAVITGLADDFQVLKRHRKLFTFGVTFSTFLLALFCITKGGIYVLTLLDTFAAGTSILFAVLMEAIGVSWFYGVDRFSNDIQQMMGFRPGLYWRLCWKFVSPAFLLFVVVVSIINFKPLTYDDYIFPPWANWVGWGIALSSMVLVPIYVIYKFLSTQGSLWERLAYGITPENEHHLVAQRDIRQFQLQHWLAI

[5] = Inhibition of NAT in Wistar rat synaptosomes assessed as [3H]-NA reuptake by liquid scintillation counting; type: subcellular
[6] = molecular target: Sodium-dependent serotonin transporter (Rattus norvegicus, UniProt P31652); experiment: Inhibition of 5-HT in Wistar rat synaptosomes assessed as [3H]-5-HT reuptake by liquid scintillation counting; type: subcellular
Chain of Sodium-dependent serotonin transporter (Rattus norvegicus, UniProt P31652) (P31652 whole entry): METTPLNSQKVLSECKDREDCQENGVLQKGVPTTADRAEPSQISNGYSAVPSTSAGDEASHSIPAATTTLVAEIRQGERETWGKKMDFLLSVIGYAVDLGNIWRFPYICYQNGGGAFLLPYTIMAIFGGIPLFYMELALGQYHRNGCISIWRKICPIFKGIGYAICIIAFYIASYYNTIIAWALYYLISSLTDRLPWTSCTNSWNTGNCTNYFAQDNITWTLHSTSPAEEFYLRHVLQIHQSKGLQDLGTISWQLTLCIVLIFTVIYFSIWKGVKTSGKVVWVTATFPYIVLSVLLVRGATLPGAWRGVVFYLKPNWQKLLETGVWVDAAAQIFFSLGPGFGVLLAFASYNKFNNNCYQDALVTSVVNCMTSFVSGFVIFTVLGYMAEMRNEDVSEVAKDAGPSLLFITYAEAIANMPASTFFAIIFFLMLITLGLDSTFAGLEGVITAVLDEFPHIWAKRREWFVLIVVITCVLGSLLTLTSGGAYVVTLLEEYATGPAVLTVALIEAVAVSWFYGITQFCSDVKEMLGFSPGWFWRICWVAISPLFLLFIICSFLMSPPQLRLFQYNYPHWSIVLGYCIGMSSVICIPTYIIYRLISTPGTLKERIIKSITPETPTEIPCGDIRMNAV

[7] = molecular target: Sodium-dependent dopamine transporter (Rattus norvegicus, UniProt P23977); experiment: Inhibition of DAT in Wistar rat synaptosomes assessed as [3H]-DA reuptake by liquid scintillation counting; type: subcellular
Chain of Sodium-dependent dopamine transporter (Rattus norvegicus, UniProt P23977) (P23977 whole entry): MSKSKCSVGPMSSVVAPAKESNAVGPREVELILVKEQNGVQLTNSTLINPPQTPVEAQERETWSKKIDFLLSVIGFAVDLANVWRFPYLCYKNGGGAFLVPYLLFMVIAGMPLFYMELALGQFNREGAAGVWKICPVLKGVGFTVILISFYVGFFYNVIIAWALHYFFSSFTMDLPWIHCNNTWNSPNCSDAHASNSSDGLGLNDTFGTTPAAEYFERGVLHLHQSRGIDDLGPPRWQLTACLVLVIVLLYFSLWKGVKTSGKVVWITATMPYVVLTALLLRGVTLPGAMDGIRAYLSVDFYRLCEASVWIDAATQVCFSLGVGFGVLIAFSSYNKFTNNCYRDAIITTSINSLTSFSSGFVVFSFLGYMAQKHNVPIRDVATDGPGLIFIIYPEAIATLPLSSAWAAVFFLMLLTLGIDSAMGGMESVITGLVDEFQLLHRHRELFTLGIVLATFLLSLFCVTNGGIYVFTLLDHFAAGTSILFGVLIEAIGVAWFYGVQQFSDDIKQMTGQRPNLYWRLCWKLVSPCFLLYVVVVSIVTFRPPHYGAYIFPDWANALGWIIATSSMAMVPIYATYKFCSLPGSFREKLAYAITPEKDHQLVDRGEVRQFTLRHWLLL

[8] = molecular target: Voltage-gated inwardly rectifying potassium channel KCNH2 (Homo sapiens, UniProt Q12809); experiment: Inhibition of human ERG channel tail current
Chain of Voltage-gated inwardly rectifying potassium channel KCNH2 (Q12809 whole entry): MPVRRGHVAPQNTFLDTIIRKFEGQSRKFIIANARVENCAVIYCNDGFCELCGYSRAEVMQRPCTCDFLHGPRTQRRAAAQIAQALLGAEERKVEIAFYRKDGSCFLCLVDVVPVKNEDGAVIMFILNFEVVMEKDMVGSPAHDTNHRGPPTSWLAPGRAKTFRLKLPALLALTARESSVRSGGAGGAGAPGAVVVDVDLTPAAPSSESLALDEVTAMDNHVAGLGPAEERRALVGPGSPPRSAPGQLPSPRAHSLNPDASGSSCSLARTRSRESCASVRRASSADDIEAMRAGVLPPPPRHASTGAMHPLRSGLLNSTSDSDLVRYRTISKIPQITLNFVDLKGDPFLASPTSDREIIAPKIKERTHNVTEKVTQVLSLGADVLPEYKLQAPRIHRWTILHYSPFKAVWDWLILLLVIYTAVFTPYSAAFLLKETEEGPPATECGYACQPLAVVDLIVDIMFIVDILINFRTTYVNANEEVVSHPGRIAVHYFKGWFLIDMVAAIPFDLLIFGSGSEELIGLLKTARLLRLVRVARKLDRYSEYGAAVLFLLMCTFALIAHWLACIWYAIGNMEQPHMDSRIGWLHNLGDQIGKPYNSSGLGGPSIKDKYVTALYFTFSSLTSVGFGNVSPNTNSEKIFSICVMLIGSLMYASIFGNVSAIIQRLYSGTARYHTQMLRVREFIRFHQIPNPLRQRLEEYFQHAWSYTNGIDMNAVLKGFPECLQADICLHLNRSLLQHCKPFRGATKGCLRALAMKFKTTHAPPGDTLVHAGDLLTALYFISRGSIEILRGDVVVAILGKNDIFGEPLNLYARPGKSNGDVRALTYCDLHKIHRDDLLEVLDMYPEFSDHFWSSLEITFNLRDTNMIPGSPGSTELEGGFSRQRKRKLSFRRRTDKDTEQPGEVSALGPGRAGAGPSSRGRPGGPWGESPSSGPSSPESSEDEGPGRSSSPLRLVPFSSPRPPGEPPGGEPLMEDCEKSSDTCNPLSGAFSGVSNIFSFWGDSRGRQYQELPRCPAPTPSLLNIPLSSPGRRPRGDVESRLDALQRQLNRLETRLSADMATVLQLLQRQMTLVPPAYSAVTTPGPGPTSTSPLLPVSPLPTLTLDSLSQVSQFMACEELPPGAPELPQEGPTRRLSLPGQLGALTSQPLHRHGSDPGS

[9] = Inhibition of recombinant human sPLA2 after 30 mins microtiter plate assay

| Compound | IC50 [5] | IC50 [6] | IC50 [7] | other results |
| --- | --- | --- | --- | --- |
| O=C(O)CC[C@@H](CSc1ccc(Cc2ccccc2)cc1)NC(=O)CCCCCCc1ccccc1 | – | – | – | IC50 [1]: 0.021 µM |
| COC(=O)[C@H](CCCCNC(=O)CN(CC(=O)CNc1ccc(OC)cc1)C(=O)C1CCCC(C(=O)N(CC(=O)NCCCC[C@H](NC(=O)OCc2ccccc2)C(=O)OC)CC(=O)NCc2ccc(OC)cc2)C1)NC(=O)OCc1ccccc1 (some centres not stated) | – | – | – | Activity (UT7): 33% |
| CC(C)C(C)[C@]1(c2ccc3ccccc3c2)CC[C@](C)(O)CC1 (some centres not stated) | – | – | – | IC50 [2]: 0.018 µM; IC50 [3]: 0.021 µM; IC50 [4]: 0.033 µM |
| CN1C2CCC1CC(Oc1ccc3cc(-c4ccoc4)c(=O)oc3c1)C2 (configuration not stated) | 0.0038 µM | 0.0029 µM | 0.07 µM | – |
| Cc1ccc(C2CC3CCC(C2)N3C)cc1Br (configuration not stated) | 0.015 µM | 0.0014 µM | 0.013 µM | – |
| CN1C2CCC1CC(c1ccc3ccccc3c1)C2 (configuration not stated) | 0.018 µM | 0.00023 µM | 0.034 µM | – |
| COc1cc2ccc(OC3CC4CCC(C3)N4C)cc2oc1=O (configuration not stated) | 0.00048 µM | 0.01 µM | 0.0099 µM | – |
| CN(C)CC1(c2ccc(Cl)c(Cl)c2)CCCC(O)C1 (configuration not stated) | – | – | – | IC50 [3]: 0.013 µM |
| CNC[C@]1(c2ccc3ccccc3c2)CC[C@@](C)(O)CC1 | – | – | – | IC50 [2]: 0.011 µM; IC50 [3]: 0.04 µM |
| CC1=NN(c2ccc(C)c(C)c2)C(=O)/C1=N\Nc1cccc(-c2cccc(C(=O)O)c2)c1O [ELTROMBOPAG] | – | – | – | IC50 [8]: 0.69 µM |
| CCc1c(C(=O)C(N)=O)c2c(OCC(=O)O)cccc2n1Cc1ccccc1 [VARESPLADIB] | – | – | – | IC50 [9]: 0.009 µM |
